Test results reported in patent US12509454B2, “Thiadiazolyl derivatives” (IDEAYA Biosciences, Inc., priority 2019, dated 2025).

These compounds were tested against Pol theta (1-899) (Homo sapiens (Human), UniProt O75417) (assay: Pol theta ATPase activity, NADH oxidation-coupled enzymatic assay). Settings: Pol theta (1-899) 10 nM, ATP, dT50 ssDNA, absorbance 340 nm, 10-point dilution series; read-out: ATPase NADH coupling:Standard Screening:hPolQ IC50.
Assay type: biochemical
In short: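 Pol theta (1-899), 10 nM, preincubated 15 min at RT with 10-point compound series in Tris pH 7.80/KCl/MgCl2 buffer, then given 100 μM ATP plus 300 nM dT50 ssDNA with PK/LDH-coupled NADH oxidation. A340 followed for 30 min; rate slopes fitted with a four-parameter model for IC50.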

Pol theta (1-899), sequence (O75417 1-899): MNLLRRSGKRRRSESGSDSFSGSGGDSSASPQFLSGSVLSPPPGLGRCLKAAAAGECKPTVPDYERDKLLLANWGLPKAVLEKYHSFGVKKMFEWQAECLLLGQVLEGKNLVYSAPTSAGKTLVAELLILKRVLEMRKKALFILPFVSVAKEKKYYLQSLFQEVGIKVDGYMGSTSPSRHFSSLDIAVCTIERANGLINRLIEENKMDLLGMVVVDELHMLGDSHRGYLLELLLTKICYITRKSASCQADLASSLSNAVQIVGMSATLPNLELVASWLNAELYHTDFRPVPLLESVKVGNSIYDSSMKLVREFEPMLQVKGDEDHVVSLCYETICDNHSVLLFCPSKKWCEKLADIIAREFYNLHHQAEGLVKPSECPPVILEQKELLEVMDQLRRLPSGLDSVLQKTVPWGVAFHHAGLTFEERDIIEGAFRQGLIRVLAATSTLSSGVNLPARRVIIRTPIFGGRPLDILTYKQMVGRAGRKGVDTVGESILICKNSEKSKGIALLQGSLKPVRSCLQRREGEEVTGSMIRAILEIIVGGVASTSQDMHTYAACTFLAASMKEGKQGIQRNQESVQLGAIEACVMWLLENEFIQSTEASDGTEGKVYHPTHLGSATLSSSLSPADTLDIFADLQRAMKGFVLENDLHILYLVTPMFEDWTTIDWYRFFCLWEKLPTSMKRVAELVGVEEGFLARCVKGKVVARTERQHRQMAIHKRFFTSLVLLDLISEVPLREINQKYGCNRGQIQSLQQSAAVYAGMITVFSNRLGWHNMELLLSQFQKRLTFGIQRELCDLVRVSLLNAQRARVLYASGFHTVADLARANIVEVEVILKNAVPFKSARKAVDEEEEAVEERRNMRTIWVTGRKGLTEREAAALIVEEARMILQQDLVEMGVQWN

Row | IC50 [nM] | SMILES
1 | 1000 to 10000 | COc1ccccc1-c1cc(C(C)(C)O)ncc1C(=O)Nc1nnc(OCc2ccc(Cl)cn2)s1 [Example 207, N-(5-((5-chloropyridin-2-yl)methoxy)-1,3,4-thiadiazol-2-yl)-6-(2-hydroxypropan-2-yl)-4-(2-methoxyphenyl)nicotinamide]
2 | ≤ 200 | Cc1cc(-c2cccc3c2OC(F)(F)O3)c(C(=O)Nc2nnc(OCc3ccc(Cl)cn3)s2)cn1 [Example 208, N-(5-((5-chloropyridin-2-yl)methoxy)-1,3,4-thiadiazol-2-yl)-4-(2,2-difluorobenzo[d][1,3]dioxol-4-yl)-6-methylnicotinamide]
3 | ≤ 200 | COc1ccccc1-c1cncnc1C(=O)Nc1nnc(OCc2ccc(Cl)cn2)s1 [Example 209, N-(5-((5-chloropyridin-2-yl)methoxy)-1,3,4-thiadiazol-2-yl)-5-(2-methoxyphenyl)pyrimidine-4-carboxamide]
4 | ≤ 200 | COc1ccccc1-c1cc(C)ncc1C(=O)Nc1nnc(OCc2ccc(Cl)c3[nH]ncc23)s1 [Example 213, N-[5-[(7-chloro-1H-indazol-4-yl)methoxy]-1,3,4-thiadiazol-2-yl]-4-(2-methoxyphenyl)-6-methylpyridine-3-carboxamide]
5 | ≤ 200 | COc1ccccc1-c1cc(C)ncc1C(=O)Nc1nnc(OCc2ccc(C3CC3)cn2)s1 [Example 214, N-(5-((5-cyclopropylpyridin-2-yl)methoxy)-1,3,4-thiadiazol-2-yl)-4-(2-methoxyphenyl)-6-methylnicotinamide]
6 | ≤ 200 | COc1cccc(F)c1-c1cc(C)ncc1C(=O)Nc1nnc(OCc2ccc(C3(C#N)CC3)cn2)s1 [Example 217, N-(5-((5-(1-cyanocyclopropyl)pyridin-2-yl)methoxy)-1,3,4-thiadiazol-2-yl)-4-(2-fluoro-6-methoxyphenyl)-6-methylnicotinamide]
7 | ≤ 200 | Cc1cc(-c2ccccc2OC(F)F)c(C(=O)Nc2nnc(OCc3ccc(C4(C#N)CC4)cn3)s2)cn1 [Example 218, N-(5-[[5-(1-cyanocyclopropyl)pyridin-2-yl]methoxy]-1,3,4-thiadiazol-2-yl)-4-[2-(difluoromethoxy)phenyl]-6-methylpyridine-3-carboxamide]
8 | ≤ 200 | COc1ccccc1-c1cc(C)ncc1C(=O)Nc1nnc(OCc2ccc(C#N)cn2)s1 [Example 219, N-(5-((5-cyanopyridin-2-yl)methoxy)-1,3,4-thiadiazol-2-yl)-4-(2-methoxyphenyl)-6-methylnicotinamide]

The remaining lines, values behind:

Row | SMILES | IC50 [nM]
9 | COc1cccc(F)c1-c1cc(CO)ncc1C(=O)Nc1nnc(OCc2ccc(Cl)cn2)s1 [Example 206, N-[5-[(5-chloropyridin-2-yl)methoxy]-1,3,4-thiadiazol-2-yl]-4-(2-fluoro-6-methoxyphenyl)-6-(hydroxymethyl)pyridine-3-carboxamide] | ≤ 200
10 | COc1ccccc1-c1cc(C)ncc1C(=O)Nc1nnc(OCc2ncccc2F)s1 [Example 210, N-[5-[(3-fluoropyridin-2-yl)methoxy]-1,3,4-thiadiazol-2-yl]-4-(2-methoxyphenyl)-6-methylpyridine-3-carboxamide] | ≤ 200
11 | COc1ccccc1-c1cc(C)ncc1C(=O)Nc1nnc(OCc2cccc(F)n2)s1 [Example 211, N-[5-[(6-fluoropyridin-2-yl)methoxy]-1,3,4-thiadiazol-2-yl]-4-(2-methoxyphenyl)-6-methylpyridine-3-carboxamide] | ≤ 200
12 | COc1ccccc1-c1cc(C)ncc1C(=O)Nc1nnc(OCc2cnc(Cl)cn2)s1 [Example 212, N-[5-[(5-chloropyrazin-2-yl)methoxy]-1,3,4-thiadiazol-2-yl]-4-(2-methoxyphenyl)-6-methylpyridine-3-carboxamide] | ≤ 200
13 | COc1ccccc1-c1c(C(=O)Nc2nnc(OCc3ccc(Cl)cn3)s2)cnc(C)c1F [Example 215, N-(5-((5-chloropyridin-2-yl)methoxy)-1,3,4-thiadiazol-2-yl)-5-fluoro-4-(2-methoxyphenyl)-6-methylnicotinamide] | ≤ 200
14 | COc1ccccc1-c1cc(C2CC2)ncc1C(=O)Nc1nnc(OCc2ccc(Cl)cn2)s1 [Example 216, N-[5-[(5-chloropyridin-2-yl)methoxy]-1,3,4-thiadiazol-2-yl]-6-cyclopropyl-4-(2-methoxyphenyl)pyridine-3-carboxamide] | ≤ 200
15 | COc1ccccc1-c1cc(C)ncc1C(=O)Nc1nnc(OCc2ccc(C3(C#N)CC3)cn2)s1 [Example 220, N-(5-[[5-(1-cyanocyclopropyl)pyridin-2-yl]methoxy]-1,3,4-thiadiazol-2-yl)-4-(2-methoxyphenyl)-6-methylpyridine-3-carboxamide] | ≤ 200
16 | COc1ccccc1-c1cc(C)ncc1C(=O)Nc1nnc(OCc2ccc(F)cn2)s1 [Example 221, N-[5-[(5-fluoropyridin-2-yl)methoxy]-1,3,4-thiadiazol-2-yl]-4-(2-methoxyphenyl)-6-methylpyridine-3-carboxamide] | ≤ 200
17 | COc1cc(-c2ccccc2OC)c(C(=O)Nc2nnc(OCc3ccc(Cl)cn3)s2)cn1 [Example 222, N-(5-((5-chloropyridin-2-yl)methoxy)-1,3,4-thiadiazol-2-yl)-6-methoxy-4-(2-methoxyphenyl)nicotinamide] | ≤ 200
18 | COc1ccccc1-c1cc2cnnn2cc1C(=O)Nc1nnc(OCc2ccc(Cl)cn2)s1 [Example 223, N-[5-[(5-chloropyridin-2-yl)methoxy]-1,3,4-thiadiazol-2-yl]-5-(2-methoxyphenyl)-[1,2,3]triazolo[1,5-a]pyridine-6-carboxamide] | ≤ 200
19 | COc1ccccc1-c1cc2cncn2cc1C(=O)Nc1nnc(OCc2ccc(Cl)cn2)s1 [Example 224, N-[5-[(5-chloropyridin-2-yl)methoxy]-1,3,4-thiadiazol-2-yl]-7-(2-methoxyphenyl)imidazo[1,5-a]pyridine-6-carboxamide] | ≤ 200
